Assay results reported in patent US20190192517A1, “TREATMENT OF SQUAMOUS CELL CARCINOMAS WITH INHIBITORS OF ERK” (Kura Oncology, Inc., priority 2016, published 2019).

Each compound was assayed against T1, ERK2 enzyme (Homo sapiens, UniProt P28482) (assay: Inhibition assay of ERK (Z'-LYTE kinase assay, Ser/Thr 3 peptide, 100 μM ATP)). Settings: in vitro.
T1 construct: purchased Life Technologies
Type: biochemical
Procedure: Example 9: Inhibition Assays of ERK. The inhibition of ERK activity by the compounds disclosed herein was determined using the Z′-LYTE kinase assay kit (Life Technologies) with a Ser/Thr 3 peptide substrate (Life Technologies) according to manufacturer's instructions. […] The IC50 values for the compounds were determined with 3-fold serial dilutions in duplicate. The compounds were first diluted in 1:3 dilutions in 100% DMSO at 100× the desired concentration, and then further diluted (1:25) in 20 mM HEPES buffer (Invitrogen) to make 4× solutions prior to adding to the enzyme solution. The final DMSO concentration in the assay was 1%. Final reaction volume was […] in 384-well plates. Kinase reactions were conducted for 1 hour followed by the assay development reaction (1 hour) in a 384 well plate format (20 μL/well).

T1 sequence (P28482 whole entry): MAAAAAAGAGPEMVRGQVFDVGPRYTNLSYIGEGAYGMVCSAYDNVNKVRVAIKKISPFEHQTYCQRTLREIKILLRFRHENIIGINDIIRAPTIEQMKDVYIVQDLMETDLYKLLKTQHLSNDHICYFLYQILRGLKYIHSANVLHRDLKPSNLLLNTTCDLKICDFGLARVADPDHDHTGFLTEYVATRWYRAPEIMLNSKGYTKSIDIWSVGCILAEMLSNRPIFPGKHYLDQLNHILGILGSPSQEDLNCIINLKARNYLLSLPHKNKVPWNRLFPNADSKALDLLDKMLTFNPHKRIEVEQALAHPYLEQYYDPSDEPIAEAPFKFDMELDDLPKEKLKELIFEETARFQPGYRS

IC50, < 500 nM:
COc1ccc(-c2n[nH]c3cc4c(cc23)CN([C@@H]2CCCN(Cc3ccc(F)cc3F)C2)C(=O)N4)cn1 [Compound 273], COc1cc(-c2n[nH]c3cc4c(cc23)CN([C@@H]2CCCN(Cc3ccc(F)cc3F)C2)C(=O)N4)ccn1 [Compound 271], Cc1cc(-c2n[nH]c3cc4c(cc23)CN([C@@H]2CCCN(Cc3ccccc3Cl)C2)C(=O)N4)ccn1 [Compound 158], CC(c1ccccc1)c1cc2cc3c(-c4ccncc4)n[nH]c3cc2[nH]c1=O (stereo not shown) [Compound 326], COc1cccc(F)c1CN1CCC[C@@H](N2Cc3cc4c(-c5ccnc(C)c5)n[nH]c4cc3NC2=O)C1 [Compound 144], Cn1ccc(-c2n[nH]c3cc4c(cc23)CN([C@@H]2CCCN(Cc3ccc(F)cc3F)C2)C(=O)N4)c1 [Compound 281], COc1ncc(-c2n[nH]c3cc4c(cc23)CN([C@@H]2CCCN(Cc3ccccc3F)C2)C(=O)N4)cn1 [Compound 101], Cc1cc(-c2n[nH]c3cc4c(cc23)CN([C@@H]2CN(C)C[C@H]2c2ccccc2)C(=O)N4)ccn1 (racemic) [Compound 241], Cc1cc(-c2n[nH]c3cc4c(cc23)CN(CC2CCCC2)C(=O)N4)ccn1 [Compound 212], Cc1cc(-c2n[nH]c3cc4[nH]c(=O)c(C5CCCN(Cc6ccccc6)C5)cc4cc23)ccn1 (stereo not shown) [Compound 332], Cc1cc(-c2n[nH]c3cc4c(cc23)CN([C@@H]2CCCN(Cc3sccc3F)C2)C(=O)N4)ccn1 [Compound 291], CC(c1ccccc1)c1cc2cc3c(NC4CCOCC4)n[nH]c3cc2[nH]c1=O (stereo not shown) [Compound 338], Cc1cc(-c2n[nH]c3cc4c(cc23)CN(Cc2cccc(Cl)c2)C(=O)N4)ccn1 [Compound 4], O=C1Nc2cc3[nH]nc(-c4ccncc4)c3cc2CN1Cc1cccc(Cl)c1 [Compound 3], Cc1cc(-c2n[nH]c3cc4[nH]c(=O)c([C@H](C)c5ccc(F)cc5)cc4cc23)ccn1 [Compound 288], Cc1cc(-c2n[nH]c3cc4c(cc23)CN([C@@H]2CCCN(Cc3cccc(F)c3F)C2)C(=O)N4)ccn1 [Compound 185], Cc1cc(-c2n[nH]c3cc4c(cc23)CN([C@@H]2CCN(CCc3ccccc3)C2)C(=O)N4)ccn1 [Compound 153], [2H]C([2H])(c1ccccc1)N1CCC[C@@H](N2Cc3cc4c(-c5ccnc(C)c5)n[nH]c4cc3NC2=O)C1 [Compound 148], Cc1cc(-c2n[nH]c3cc4c(cc23)CN(CCNCc2ccccc2)C(=O)N4)ccn1 [Compound 149], Cc1cc(-c2n[nH]c3cc4c(cc23)CN([C@@H]2CCCN(Cc3ccccc3)C2)C(=O)N4)ccn1 [Compound 63], COc1ncc(-c2n[nH]c3cc4c(cc23)CN([C@@H]2CCCN(Cc3ccc(F)cc3F)C2)C(=O)N4)cn1 [Compound 280], Cc1cc(-c2n[nH]c3cc4c(cc23)CN([C@@H]2CCN(CC(F)(F)F)C2)C(=O)N4)ccn1 [Compound 214], Cc1cc(-c2n[nH]c3cc4c(cc23)CN(Cc2cccc(C(F)(F)F)c2)C(=O)N4)ccn1 [Compound 240], Cc1cc(-c2n[nH]c3cc4c(cc23)CN([C@@H]2CCCN(Cc3cccc(Cl)c3)C2)C(=O)N4)ccn1 [Compound 156], Cc1cc(-c2n[nH]c3cc4c(cc23)CN([C@@H]2CCCN(C(C)c3ccccc3)C2)C(=O)N4)ccn1 (stereo partly shown) [Compound 154], Cc1cc(-c2n[nH]c3cc4c(cc23)CN(CC2CCCCC2)C(=O)N4)ccn1 [Compound 213], Cc1cc(-c2n[nH]c3cc4c(cc23)CN([C@@H]2CN(C)C[C@H]2c2ccccc2)C(=O)N4)cc(C)n1 (racemic) [Compound 248], Cc1cc(-c2n[nH]c3cc4c(cc23)CN([C@@H]2CCCN(Cc3ccc(F)cc3F)C2)C(=O)N4)ccn1 [Compound 196], COc1ncc(-c2n[nH]c3cc4c(cc23)CN([C@@H]2CCCN(Cc3c(F)cccc3F)C2)C(=O)N4)cn1 [Compound 102], Cc1cc(-c2n[nH]c3cc4c(cc23)CN([C@@H]2CCCN(Cc3ccc(C)s3)C2)C(=O)N4)ccn1 [Compound 245], Cc1ccc(-c2n[nH]c3cc4c(cc23)CN([C@@H]2CCCN(Cc3ccc(F)cc3F)C2)C(=O)N4)cn1 [Compound 284], O=C1Nc2cc3[nH]nc(-c4ccncc4)c3cc2CN1Cc1ccccc1 [Compound 1], Cc1cc(-c2n[nH]c3cc4c(cc23)CN([C@@H]2CCCN(Cc3cc(F)ccc3F)C2)C(=O)N4)ccn1 [Compound 187], C=C(c1ccccc1)c1cc2cc3c(-c4ccnc(C)c4)n[nH]c3cc2[nH]c1=O [Compound 269], COc1ncc(-c2n[nH]c3cc4c(cc23)CN([C@@H]2CCCN(Cc3c(F)cccc3OC)C2)C(=O)N4)cn1 [Compound 103], Cc1cc(-c2n[nH]c3cc4c(cc23)CN([C@@H]2CN(CC(F)(F)F)C[C@H]2c2ccccc2)C(=O)N4)cc(C)n1 [Compound 339], CC(c1ccccc1)c1cc2cc3c(-c4ccnc(N5CCOCC5)c4)n[nH]c3cc2[nH]c1=O (stereo not shown) [Compound 325], CCC(c1ccccc1)c1cc2cc3c(-c4ccnc(C)c4)n[nH]c3cc2[nH]c1=O (stereo not shown) [Compound 64], Cc1cc(-c2n[nH]c3cc4c(cc23)CN([C@@H]2CCN(C(C)C(F)(F)F)C2)C(=O)N4)ccn1 (stereo partly shown) [Compound 267], COc1cccc(F)c1CN1CC[C@@H](N2Cc3cc4c(-c5ccnc(C)c5)n[nH]c4cc3NC2=O)C1 [Compound 162], CC(c1ccccc1)c1cc2cc3c(-c4ccnc(N5CCN(C)CC5)c4)n[nH]c3cc2[nH]c1=O (stereo not shown) [Compound 318], Cc1cc(-c2n[nH]c3cc4[nH]c(=O)c(C(C)c5ccccc5)cc4cc23)ccn1 (stereo not shown) [Compound 22], Cc1cc(-c2n[nH]c3cc4[nH]c(=O)c([C@H](C)c5ccccc5)cc4cc23)ccn1 [Compound 84], Cc1cc(-c2n[nH]c3cc4c(cc23)CN([C@@H]2CN(CC(F)F)C[C@H]2c2ccccc2)C(=O)N4)ccn1 (racemic) [Compound 362], CC(c1ccccc1)c1cc2cc3c(-c4cnn(C)c4)n[nH]c3cc2[nH]c1=O (stereo not shown) [Compound 333], Cc1cc(-c2n[nH]c3cc4c(cc23)CN([C@@H]2CN(CC(F)(F)F)C[C@H]2c2ccccc2)C(=O)N4)ccn1 [Compound 304], Cc1cc(-c2n[nH]c3cc4c(cc23)CN(C2CCC2)C(=O)N4)ccn1 [Compound 243], C[C@H](c1ccccc1)c1cc2cc3c(NC4CCOCC4)n[nH]c3cc2[nH]c1=O [Compound 357], Cc1cc(-c2n[nH]c3cc4c(cc23)CN([C@@H]2CCCN(CC(F)(F)F)C2)C(=O)N4)cc(C)n1 [Compound 244], Cc1cc(-c2n[nH]c3cc4c(cc23)CN([C@@H]2CCN(Cc3ccccc3)C2)C(=O)N4)ccn1 [Compound 146], Cc1cc(-c2n[nH]c3cc4c(cc23)CN([C@@H]2CCCN(Cc3cccs3)C2)C(=O)N4)ccn1 [Compound 254], Cc1cc(-c2n[nH]c3cc4c(cc23)CN(C2CCCC2)C(=O)N4)cc(C)n1 [Compound 239], Cc1cc(-c2n[nH]c3cc4c(cc23)CN([C@@H]2CCCN(Cc3ccsc3)C2)C(=O)N4)ccn1 [Compound 252], Cc1cc(-c2n[nH]c3cc4c(cc23)CN([C@@H]2CCCN(Cc3ccc(F)c(F)c3)C2)C(=O)N4)ccn1 [Compound 190], Cc1cc(-c2n[nH]c3cc4c(cc23)CN([C@@H]2CN(C)C[C@H]2c2ccccc2F)C(=O)N4)cc(C)n1 (racemic) [Compound 306], CC(c1ccccc1)c1cc2cc3c(-c4ccc(N5CCN(C)CC5)nc4)n[nH]c3cc2[nH]c1=O (stereo not shown) [Compound 316], Cc1cc(-c2n[nH]c3cc4c(cc23)CN([C@H]2CN(Cc3ccccc3)CC(F)(F)C2)C(=O)N4)ccn1 [Compound 264], Cc1cc(-c2n[nH]c3cc4c(cc23)CN([C@@H]2CCCN(Cc3csc(C)c3)C2)C(=O)N4)ccn1 [Compound 251], Cc1cc(-c2n[nH]c3cc4c(cc23)CN([C@@H]2CCCN(Cc3ccc(F)c(Cl)c3)C2)C(=O)N4)ccn1 [Compound 134], CCN1C[C@@H](N2Cc3cc4c(-c5ccnc(C)c5)n[nH]c4cc3NC2=O)[C@H](c2ccccc2)C1 (racemic) [Compound 278], COc1ccc(-c2n[nH]c3cc4c(cc23)CN([C@@H]2CCCN(Cc3ccccc3)C2)C(=O)N4)cn1 [Compound 272]
